Source: PMC5865651, “Novel inhibitor candidates of TRPV2 prevent damage of dystrophic myocytes and ameliorate against dilated cardiomyopathy in a hamster model” (Oncotarget, 2018)

Tests used:
J2N-k myocytes = experiment: Stretch-induced CK release from J2N-k myocytes; assay type: cell-based, hamster; settings: 30 μM, 30 min pretreatment, cyclic stretch 20% elongation 1 h
Description: Creatine phosphokinase (CK) activity in the medium was determined using an in vitro colorimetric assay kit (CK Test Kit; Wako Pure Chemical Industries, Ltd., Osaka, Japan) according to the manufacturer's protocol The cTN-I level in the serum was measured, while quantitative immunoblotting and immunocytochemistry were performed as previously described. Protein concentration was measured using the bicinchoninic acid assay (Pierce Chemical Co., Rockford, IL, USA) with bovine serum albumin as the standard. All histochemical and physiological analyses were performed by investigators blinded to the drug treatments. Unless otherwise stated, results are presented as the mean ± SD of at least 5 determinations. The unpaired Student's t-test and one-way ANOVA followed by Dunnett's test were used to analyse the data. Values of P < 0.05 (indicated as asterisks in the figures) were considered statistically significant. All cellular measurements were repeated at least 5 times. Representative data are shown.

human TRPV2 (hTRPV2) = target: T1, human TRPV2 (hTRPV2) (Homo sapiens, UniProt Q9Y5S1); settings: cited from earlier work
T1 sequence (Q9Y5S1 1-764): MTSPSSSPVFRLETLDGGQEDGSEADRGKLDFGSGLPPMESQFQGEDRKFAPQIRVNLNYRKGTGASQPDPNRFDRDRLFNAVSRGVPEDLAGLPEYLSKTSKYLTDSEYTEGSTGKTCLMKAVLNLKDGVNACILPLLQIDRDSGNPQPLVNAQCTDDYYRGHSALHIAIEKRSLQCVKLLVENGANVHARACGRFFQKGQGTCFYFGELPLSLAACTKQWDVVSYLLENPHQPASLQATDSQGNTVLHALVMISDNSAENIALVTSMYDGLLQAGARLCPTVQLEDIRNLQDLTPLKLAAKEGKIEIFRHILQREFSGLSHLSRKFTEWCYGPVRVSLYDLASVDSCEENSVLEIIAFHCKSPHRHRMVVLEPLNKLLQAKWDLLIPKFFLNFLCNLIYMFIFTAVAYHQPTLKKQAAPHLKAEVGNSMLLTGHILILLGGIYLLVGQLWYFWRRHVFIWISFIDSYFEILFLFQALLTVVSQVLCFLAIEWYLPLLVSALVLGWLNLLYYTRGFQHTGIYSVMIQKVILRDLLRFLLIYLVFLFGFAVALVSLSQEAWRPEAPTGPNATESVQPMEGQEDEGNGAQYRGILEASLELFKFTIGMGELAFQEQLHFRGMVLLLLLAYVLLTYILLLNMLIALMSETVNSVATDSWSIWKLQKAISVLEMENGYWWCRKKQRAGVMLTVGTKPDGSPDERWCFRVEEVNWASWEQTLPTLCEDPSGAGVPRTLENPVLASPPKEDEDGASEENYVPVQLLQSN

[1] = test system: dystrophic myocytes from J2N-k hamsters; experiment: Ca2+ response in cultured myocytes from dystrophic J2N-k hamsters; assay type: cell-based, hamster; settings: compound 15 μM

COc1cc(/C=C(\C#N)C(=O)Nc2ccccc2C(=O)O)cc(Cl)c1OC [A3, 2-[(2E)-3-(3-Chloro-4,5-dimethoxyphenyl)-2-cyanoprop-2-enoylamino]benzoic acid]
reduction of stretch-induced CK release (J2N-k myocytes): up to 70%

NCCOB(c1ccccc1)c1ccccc1 [2-APB, 2-aminoethoxydiphenylborate]
response of hTRPV2 to 2-APB (human TRPV2 (hTRPV2)): unresponsive

CCN1C=CC(=CC=C(C=Cc2cc[n+](CC)c3ccccc23)c2cc[n+](CC)c3ccccc23)c2ccccc21.[I-].[I-] [lumin, 4,4′-[3-[2-[1-ethyl-4(1H)-quinolinylidene]ethylidene]-1-propene-1,3-diyl]bis(1-ethylquinolinium) diiodide]
effect on high extracellular Ca2+ (5 mM)-induced increase in [Ca2+]i [1]: inhibited | effect on 2-APB-induced increase in [Ca2+]i ([1]; 2-APB 0.5 mM, CaCl2 5 mM, pH 6.5): inhibited
